Test system: RAW264.7 cells (mitochondrial O2− production)
Assay: Mitochondrial antioxidant activity (MitoSOX, rotenone-induced superoxide)
Assay type: cell-based, mouse
Settings: rotenone 20 μM alone, oxidative stress inducer
Description: The human keratinocytes (HaCaT, CLS 300493, Eppelheim, Germany) cell line was cultured with Dulbecco’s Modified Eagle’s Medium (DMEM) (Sigma-Aldrich, St. Louis, MO, USA), supplemented with 10% (v/v) of heat-inactivated fetal bovine serum (FBS), 1% (v/v) antibiotic solution (from a 10,000 U/mL penicillin and 10,000 μg/mL streptomycin stock) (Gibco, Carlsbad, CA, USA), 3.7 g/L sodium bicarbonate, and 1 mM sodium pyruvate (Sigma-Aldrich, St. Louis, MO, USA). The cell culture of keratinocytes was detached with EDTA solution 1X (Sigma-Aldrich, St. Louis, MO, USA) when the cells reached 70–80% confluence in cell culture flasks. The mouse macrophage cell line (RAW 264.7, ATCC TIB-71, Manassas, VA, USA) was cultured in DMEM supplemented with 10% (v/v) non-inactivated FBS, 1% (v/v) antibiotic solution, 1.5 g/L sodium bicarbonate, and 1 mM sodium pyruvate. Macrophages were mechanically detached with a cell scraper and subcultured in (1:10) proportion of cellular suspension to a final volume of DMEM. The human monocytic cell line THP-1 (ATCC® TIB-202™, American Type Culture Collection, Manassas, VA, USA) was cultivated in RPMI 1640 supplemented with 10% inactivated FBS, 25 mM (D)-glucose, 10 mM HEPES, 1 mM sodium pyruvate, 100 U/mL penicillin, and 100 μg/mL streptomycin, and maintained at a cell density of 0.4 × 10^6 cells/mL. Cells were subcultured every 2 or 3 days and maintained in culture for 2–3 months, according to ATCC® instructions.
Mitochondrial superoxide (O2^−) generation was determined using the MitoSOX Red kit, according to the manufacturer’s instructions. Briefly, 5.0 × 10^5 cells/mL were plated in a 12-well plate and incubated for 24 h at 37 °C. The cells were then exposed to the AA, AAG and AAGS solution (500 µM), and after 1 h, rotenone (20 μM) was added, followed by incubation for an additional 5 h. The cells were then carefully detached, transferred to microtubes, and centrifuged at 500× g for 3 min. The cell pellet was washed with HBSS solution (2 × 1 mL), resuspended in PBS solution, and 300 µL was collected in two microtubes for unstained (150 µL) and stained (150 µL) conditions. The stained cells were incubated with 100 μL of freshly prepared MitoSOX solution 2.5 µM at 37 °C for 15 min in the dark. The stained cells were washed with HBSS solution (2 × 1 mL), and the cell pellet was resuspended in 100 μL of PBS and analyzed by flow cytometry using a BD Accuri™ C6 cytometer (San Jose, CA, USA).
CD86 and CD54 levels were analyzed by flow cytometry using the acquisition channels FL1 and FL4. Mitochondrial O2^− production was measured by flow cytometry using the acquisition channel FL2. The relative fluorescence intensity (RFI) of CD86 and CD54 (THP-1 maturation assay) and MitoSOX (mitochondrial antioxidant activity) in the control and chemical-treated cells, based on the geometric mean fluorescence intensity (MFI), was calculated according to the following equation: RFI=MFI of chemical treated cells−MFI of chemical treated unstained cells/MFI of control treated cells−MFI of control unstained cells ×100

## C=C(C)[C@H]1Cc2c(ccc3c2O[C@@H]2COc4cc(OC)c(OC)cc4[C@@H]2C3=O)O1 [Rotenone]
  relative fluorescence intensity (RFI) of MitoSOX: 269.70 ± 11.63%

Reference: PMC11477482 (Molecules, 2024)
